Patent US20210261561A1, “BICYCLIC HETEROCYCLE DERIVATIVES HAVING SELECTIVE BACE1 INHIBITORY ACTIVITY” (SHIONOGI & CO., LTD., priority 2018, published 2021)

System: Abeta 1-37, Abeta 1-38, Abeta 1-40 and Abeta 1-42 in cerebrospinal fluid (CSF)
Test: Pharmacology in the beagle dog, beta-amyloid profile in CSF (Test Example 18-2)
Format: in vivo
Settings: for % Decrease in Abeta 1-42 at 24 h^(a) or 25 h^(b) post dosing compared to own baseline: 24 h or 25 h
Procedure: Test compounds were tested to evaluate the effect on the beta-amyloid profile in cerebrospinal fluid (CSF) of dogs after a single dose, in combination with pharmacokinetic (PK) follow up and limited safety evaluation.
For each of compound II-6 or II-10, four beagle dogs (2 males, 2 females) were dosed with vehicle (1 mL/kg of an aqueous solution of 20% cyclodextrin) and 12 beagle dogs (2 males and 2 females per dosage group) were dosed with test compounds as follows:
In the case of compounds II-2, II-3 and II-18, two beagle dogs (1 male, 1 female) were dosed with vehicle (1 mL/kg of an aqueous solution of 20% cyclodextrin) and 4 beagle dogs (2 males and 2 females) were dosed with test compound (II-2, II-3, or II-18) at the doses indicated in the following Table in an aqueous 20% cyclodextrin solution with a concentration in mg/mL identical to the dose given in mg/kg) on an empty stomach.
CSF was taken in conscious animals directly from the lateral ventricle via a cannula which was screwed in the skull and covered with subcutaneous tissue and skin, before and at 4, 8, 25 and 49 hours after dosing. Eight hours after dosing the animals got access to their regular meal for 30 minutes. Blood was taken for PK follow up (0.5, 1, 2, 4, 8, 25 and 49 hours) and serum samples for biochemistry were taken before and at 8 and 25 h after dosing. The CSF samples were used for measurement of Abeta 1-37, Abeta 1-38, Abeta 1-40 and Abeta 1-42.

Structure (SMILES): C[C@@]1(S(C)(=O)=O)CC[C@@](CF)(c2cc(NC(=O)c3cc4c(cn3)OC(F)(F)CO4)ccc2F)N=C1N [II-10]
- % Decrease in Abeta 1-42 at 8 h post dosing compared to own baseline (single dose 0.16 mg/kg): 37%
- % Decrease in Abeta 1-42 at 8 h post dosing compared to own baseline (single dose 0.63 mg/kg): 68%
- % Decrease in Abeta 1-42 at 24 h^(a) or 25 h^(b) post dosing compared to own baseline (single dose 0.63 mg/kg): 21%
- % Decrease in Abeta 1-42 at 8 h post dosing compared to own baseline (single dose 1.25 mg/kg): 73%
- % Decrease in Abeta 1-42 at 24 h^(a) or 25 h^(b) post dosing compared to own baseline (single dose 1.25 mg/kg): 27%
- % Decrease in Abeta 1-42 at 8 h post dosing compared to own baseline (single dose 2.5 mg/kg): 76%
- % Decrease in Abeta 1-42 at 24 h^(a) or 25 h^(b) post dosing compared to own baseline (single dose 2.5 mg/kg): 28%

Structure (SMILES): CCS(=O)(=O)[C@]1(C)CC[C@@](CF)(c2cc(NC(=O)c3cc4c(cn3)OC(F)(F)O4)ccc2F)N=C1N [II-20]
- % Decrease in Abeta 1-42 at 8 h post dosing compared to own baseline (single dose 0.16 mg/kg): 51%
- % Decrease in Abeta 1-42 at 24 h^(a) or 25 h^(b) post dosing compared to own baseline (single dose 0.16 mg/kg): 30%
- % Decrease in Abeta 1-42 at 49 h post dosing compared to own baseline (single dose 0.16 mg/kg): 25%
- % Decrease in Abeta 1-42 at 8 h post dosing compared to own baseline (single dose 0.63 mg/kg): 72%
- % Decrease in Abeta 1-42 at 24 h^(a) or 25 h^(b) post dosing compared to own baseline (single dose 0.63 mg/kg): 70%
- % Decrease in Abeta 1-42 at 49 h post dosing compared to own baseline (single dose 0.63 mg/kg): 52%
- % Decrease in Abeta 1-42 at 8 h post dosing compared to own baseline (single dose 1 mg/kg): 73%
- % Decrease in Abeta 1-42 at 24 h^(a) or 25 h^(b) post dosing compared to own baseline (single dose 1 mg/kg): 76%
- % Decrease in Abeta 1-42 at 49 h post dosing compared to own baseline (single dose 1 mg/kg): 58%
- % Decrease in Abeta 1-42 at 8 h post dosing compared to own baseline (single dose 3.75 mg/kg): 86%
- % Decrease in Abeta 1-42 at 24 h^(a) or 25 h^(b) post dosing compared to own baseline (single dose 3.75 mg/kg): 91%
- % Decrease in Abeta 1-42 at 49 h post dosing compared to own baseline (single dose 3.75 mg/kg): 85%

Structure (SMILES): [2H]C1([2H])Oc2cnc(C(=O)Nc3ccc(F)c([C@]4(CF)CC[C@@](C)(S(C)(=O)=O)C(N)=N4)c3)cc2OC1([2H])[2H] [II-3]
- % Decrease in Abeta 1-42 at 8 h post dosing compared to own baseline (single dose 5 mg/kg): 61%

Structure (SMILES): [2H]C1([2H])Oc2cnc(C(=O)Nc3ccc(F)c([C@]4(CF)CC[C@@](C)(S(C)(=O)=O)C(N)=N4)c3)cc2OC1([2H])[2H] [II-2]
- % Decrease in Abeta 1-42 at 8 h post dosing compared to own baseline (single dose 0.63 mg/kg): 33%

Structure (SMILES): C[C@@]1(S(C)(=O)=O)CC[C@@](CF)(c2cc(NC(=O)c3cc4c(cn3)OC(F)(F)O4)ccc2F)N=C1N [II-6]
- % Decrease in Abeta 1-42 at 8 h post dosing compared to own baseline (single dose 0.16 mg/kg): 51%
- % Decrease in Abeta 1-42 at 24 h^(a) or 25 h^(b) post dosing compared to own baseline (single dose 0.16 mg/kg): 31%
- % Decrease in Abeta 1-42 at 8 h post dosing compared to own baseline (single dose 0.31 mg/kg): 69%
- % Decrease in Abeta 1-42 at 49 h post dosing compared to own baseline (single dose 0.31 mg/kg): 22%
- % Decrease in Abeta 1-42 at 8 h post dosing compared to own baseline (single dose 0.63 mg/kg): 68%
- % Decrease in Abeta 1-42 at 24 h^(a) or 25 h^(b) post dosing compared to own baseline (single dose 0.63 mg/kg): 62%
